Format in all cases: cell-based
Assay [1] deals with cyclin D1 protein in MCF-7 cells. Description: Effect of GSK3 inhibition by Li+ on IR-induced cyclin D1 degradation, immunoblot. From the text:
Activation of the PI3K-PKB/Akt-GSK-3β pathway leads to cyclin D1 degradation through phosphorylation of threonine 286 of cyclin D1 by GSK3-β (Diehl et al., 1998). We therefore asked whether this pathway is also activated by IR and is involved in stress-induced degradation of cyclin D1. To investigate the co-immunoprecipitation of GSK3-β with CDK4-cyclin D1 complex, MCF-7 cells were subjected to treatment with proteasome inhibitor cbz-LLL and IR. 5% of the cell lysates or the immunoprecipitated protein complexes were separated on 10% SDS-PAGE and immunoblotted against cyclin-D1, CDK4, GSK3- and control JNK1 proteins. […] We used proteasome inhibitors to protect cyclin D1 from degradation thereby making a direct comparison between the different treatments possible. […] MCF-7 cells were treated with increasing concentrations of LiCl or control KCl and subsequently IR (20 Gy). Lysates were prepared after 2 hours, separated on 10% SDS-PAGE and immunoblotted sequentially with anti-cyclin D1 and anti-p53 antibodies. If this pathway is involved, Li^+ ions should inhibit cyclin D1 degradation.
A general note: A western blot detects proteins with antibodies after separation by electrophoresis.

Assay [2] has as its system CDK2 activity precipitated from MCF-7/E6 cells. Nature of the assay: Immunoprecipitation-kinase assay of CDK2 activity after IR (histone H1 substrate). Conditions: two hours after IR, 10 mM cbz-LLL. The procedure:
We next determined the CDK2 activity precipitated from MCF-7/E6 cells treated with IR. Cells were treated as above, except that cells were harvested after 2 hours. […] Identical results were obtained with parental MCF-7 cells. Therefore, protein degradation seems to be necessary for fast CDK2 kinase inhibition after genotoxic stress.
We then examined the CDK2 activity in response to IR of cells transiently over-expressing either D1TA or D1TA-L32A proteins. MCF-7/E6 cells were electroporated as above, irradiated (20 Gy) and harvested 2 hours later. CDK2 protein was immunoprecipitated and its kinase activity was examined using Histone 1 as a substrate (H1). CDK2 protein level was determined by immunoblotting (IB) of the same membrane with an antibody against CDK2.
To determine CDK2 activity, specific complexes from either MCF-7/Neo or MCF-7/E6 cells were immunoprecipitated from extracts using anti-CDK2 antibody (M-2). The beads were washed two additional times with kinase buffer (20 mM Tris HCl pH:7.4, 4 mM MgCl2 and 0.5 mM DTT) and kinase reaction was carried out in […] volume kinase buffer containing […] histone-H1 as a specific substrate, […] [γ-^32P]-ATP (5000 mCi/mmol, Amersham) and […] ATP at 37 C for 30 minutes. GSK3-β activity, was determined exactly as described in (van Weeren et al., 1998) using peptide PG-S1 as a substrate.

The test system of assay [3] is cyclin D1 protein in MCF-7 cells. Nature of the assay: IR-induced cyclin D1 downregulation with proteasome inhibitor, Western blot. Conditions: 5 mM cbz-LLL added after IR for two hours. As to the method: (§1) We then asked whether cyclin D1 protein stability was affected in response to IR using a pulse-chase experiment. MCF-7 cells were pulse-labelled with [^35S]-methionine and after IR chased with excess cold methionine for the indicated periods of time. Cyclin D1 protein was immunoprecipitated, separated on SDS-PAGE and detected by PhosphorImager. Cyclin D1 was destabilized immediately after IR; its half-life decreased from 40 minutes to less then 20 (FIG. 2). To ask whether the IR-induced degradation of cyclin D1 is mediated by the proteasome, MCF-7 cells were exposed to IR and subsequently the proteasome inhibitor cbz-LLL was added at increasing concentrations for two hours. After two hours, protein lysates were made, separated on 10% SDS PAGE, and Western blotted sequentially with antibodies against cyclin D1, p53 and cyclin E proteins.

The subject of a further assay is cyclin D1 protein. Nature of the assay: Cyclin D1 degradation in response to genotoxic agents. As to the method:
as §1

For another assay, the system named is MCF-7 cells. Nature of the assay: IR-induced degradation of transfected cyclin mutants, immunoblot. The conditions noted are these: transfected MCF-7 cells, IR 20 Gy, two hours. From the text: To map the motif in cyclin D1 that mediates its degradation by genotoxic stress we analyzed several mutants of D1 by expression in MCF-7 cells. In all these experiments a co-transfected GFP construct was used to confirm equal transfection efficiencies between irradiated- and control cells. When cyclin D1 was mutated at a site within the cyclin box that is essential for activation of CDK4/6 (mutant K112E), D1 degradation by IR remained. The same result was obtained when the pRb family binding site in cyclin D1 was mutated (LxCxE mutant). We therefore conclude that D1 induced degradation by genotoxic stress is independent of both CDK4/6 kinase and pRb binding.
In the yeast Saccharomyces cerevisiae, degradation of the cyclin C homologue Ume3p can be induced by various stress signals such as heat, oxidative stress and ethanol shock (Cooper et al., 1997; Cooper et al., 1999). Three regions in Ume3p are required for stress-induced degradation, including a destruction box at the amino terminus (RxxL motif), the amino terminal region of the cyclin box and a PEST domain. […] Since cyclin D2 is not degraded by the genotoxic stress response we mutated cyclin D1 to the corresponding amino acid in cyclin D2. […] To further investigate this, we performed a pulse-chase experiment with the cyclin D1 L32A destruction box mutant to determine its half-life. […]

The values below come from patent publication US20050181360A1, “Assay for cell cycle modulators based on the modulation of cyclin d1 degradation in response to ionising radiation” (priority 2000, published 2005).

Residues, ends and D or L forms follow the SMILES beside them. *: point of attachment. Cbz = O=C(OCc1ccccc1)*

Take `[Cl-].[Li+]` [Li^+ ions, LiCl]: the “effect on cyclin D1 degradation by IR” value in assay [1] (increasing concentrations of LiCl, IR 20 Gy, lysates after 2 hours) was “no detectable effect”. In addition, in assay [1] (non-irradiated MCF-7 cells), the “cyclin D1 levels in non-irradiated cells” value is “increase”.
For the compound `CC(C)C[C@@H](C=O)NC(=O)[C@H](CC(C)C)NC(=O)[C@H](CC(C)C)NC(=O)OCc1ccccc1` [cbz-LLL] (Cbz-Leu-Leu-Leu-aldehyde), the “IR-induced reduction of CDK2 activity” value in assay [2] is “blocked”. In assay [3], the “block of cyclin D1 downregulation by IR” value is “completely block” and the “effect on cyclin E protein levels” value is listed as “without any effect”.
`N.N.[Cl][Pt][Cl]` [cis-platin]: in the assay with cyclin D1 protein, the “cyclin D1 degradation in response to genotoxic agent” value is reported as “rapidly degraded”.
For “K112E: cyclin D1 mutated within the cyclin box at a site essential for activation of CDK4/6”, in the assay on MCF-7 cells, the “degradation by IR” value is listed as “remained”.
Same read-out and setting: next, “T286A: cyclin D1 mutant in which the GSK3-β phosphorylation site was mutated”: “fully responsive”.
